Assay results from ChEMBL document CHEMBL1201862, “PubChem BioAssay data set” (2004).
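Test compounds were applied to cells in 96-well plates for 48 hours at 5 doses. GI50 = concentration required for 50% inhibition of growth.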 Activity calls are given as the source filed them. Cut-off read from the data, not from the text of the source: active = GI50 up to about 1.1 µM and inactive = higher.

Key:
Experiment in all cases: NCI anticancer screen, dose series, 48 h
[1] = tested on: A549
[2] = tested on: CAKI-1
[3] = tested on: CCRF-CEM
[4] = tested on: COLO 205
[5] = tested on: EKVX
[6] = tested on: HL-60
[7] = tested on: K562
[8] = tested on: M14
[9] = tested on: Malme-3M
[10] = tested on: NCI-H226
[11] = tested on: OVCAR-3
[12] = tested on: OVCAR-8
[13] = tested on: SF-295
[14] = tested on: SK-OV-3
[15] = tested on: SN12C
[16] = tested on: SNB-75
[17] = tested on: SW-620
[18] = tested on: UACC-257
[19] = tested on: RPMI-8226
[20] = tested on: NCI-H522

Measured: GI50

Nc1n[nH]c2c1Cc1c(n(Cc3ccc(Cl)cc3)c3ccccc13)C(=O)N2
inactive: [1] 17.8 µM | [2] 11.4 µM | [3] 8.38 µM | [4] 11.5 µM | [5] 18.7 µM | [6] 3.03 µM | [7] 2.65 µM | [8] 13.2 µM | [9] 14.7 µM | [10] 11.1 µM | [11] 14.1 µM | [12] 16.5 µM | [13] 17.3 µM | [14] 18.1 µM | [15] 14.5 µM | [16] 16.2 µM | [17] 8.47 µM | [18] 18 µM

O=C1C=CC=C/C1=C1\N=C(c2ccccc2OCC(=O)c2ccccc2)SS1
inactive: [1] > 100 µM | [2] > 100 µM | [3] > 100 µM | [5] > 100 µM | [6] > 100 µM | [7] > 100 µM | [8] > 100 µM | [9] > 100 µM | [10] > 100 µM | [11] > 100 µM | [12] 73.5 µM | [19] > 100 µM | [13] 74.5 µM | [14] > 100 µM | [15] > 100 µM | [16] 19.6 µM | [17] > 100 µM | [18] > 100 µM

CSCCCNC(=O)c1csc(-c2csc(CCNC(=O)CNC(=O)CNC(=O)CNC(=O)OC(C)(C)C)n2)n1
inactive: [1] > 100 µM | [2] > 100 µM | [3] > 100 µM | [4] > 100 µM | [5] > 100 µM | [7] > 100 µM | [8] > 100 µM | [9] > 100 µM | [10] > 100 µM | [20] > 100 µM | [11] > 100 µM | [12] > 100 µM | [13] > 100 µM | [14] > 100 µM | [15] > 100 µM | [16] > 100 µM | [17] > 100 µM | [18] > 100 µM

COc1ccc2nc3c(C)cc4ccccc4n3c2c1
inactive: [1] 41.1 µM | [3] 47.6 µM | [4] > 10 µM | [5] 19.2 µM | [6] > 100 µM | [7] 41.2 µM | [8] > 100 µM | [9] > 100 µM | [10] > 100 µM | [11] 71 µM | [12] 72.1 µM | [19] 55.1 µM | [13] 78.7 µM | [14] > 100 µM | [15] > 100 µM | [16] 28.2 µM | [17] 73.6 µM | [18] > 100 µM

CC(=O)OCCOCn1cc(C=O)c2ccccc21
inactive: [1] > 100 µM | [2] > 100 µM | [3] > 100 µM | [4] > 100 µM | [5] > 100 µM | [6] > 100 µM | [7] > 100 µM | [8] > 100 µM | [9] > 100 µM | [20] 49.3 µM | [11] > 100 µM | [12] > 100 µM | [19] > 100 µM | [13] > 100 µM | [14] > 100 µM | [15] > 100 µM | [16] > 100 µM | [17] > 100 µM | [18] > 100 µM

CC(=O)/N=C1\N/C(=C/c2cc([N+](=O)[O-])ccc2O)CN1C
inactive: [1] > 100 µM | [2] > 100 µM | [4] > 100 µM | [5] > 100 µM | [6] 69.2 µM | [8] > 100 µM | [10] > 100 µM | [11] > 100 µM | [12] > 100 µM | [13] > 100 µM | [14] > 100 µM | [15] > 100 µM | [16] > 100 µM | [17] > 100 µM | [18] > 100 µM

COc1ccc(-c2cc(C(=O)Nc3cc(C(F)(F)F)cc(C(F)(F)F)c3)c3ccccc3n2)cc1
inactive: [1] 4.71 µM | [2] 11.3 µM | [3] 7.6 µM | [4] 13.4 µM | [5] 9.06 µM | [6] 21.3 µM | [7] 4.89 µM | [8] 10.2 µM | [9] 17.9 µM | [10] 17.1 µM | [11] 4.93 µM | [12] 4.27 µM | [19] 6.27 µM | [13] 10.3 µM | [15] 10.6 µM | [16] 13.7 µM | [17] 7.94 µM | [18] 17.6 µM

CCOc1ncn(-c2ccc(NC(=S)Nc3cccc(O)c3)cc2)n1
inactive: [1] > 100 µM | [3] > 100 µM | [4] > 100 µM | [5] > 100 µM | [6] > 100 µM | [7] > 100 µM | [8] > 100 µM | [20] > 100 µM | [11] > 100 µM | [12] > 100 µM | [19] > 100 µM | [13] > 100 µM | [14] > 100 µM | [15] > 100 µM | [16] 40.4 µM | [17] > 100 µM | [18] > 100 µM

C=CCN(C)CN(C)c1nc(N(C)C)nc(N(C)C)n1
inactive: [1] > 100 µM | [2] > 100 µM | [3] 33 µM | [4] 86.3 µM | [5] > 100 µM | [6] 21.1 µM | [7] > 100 µM | [8] 50.7 µM | [9] > 100 µM | [20] 11.2 µM | [11] 64.6 µM | [12] > 100 µM | [19] 46.6 µM | [13] > 100 µM | [14] > 100 µM | [15] > 100 µM | [16] 44.1 µM | [17] 36.3 µM | [18] > 100 µM

O=c1oc2ccccc2n1P(=O)(Oc1ccc(Cl)cc1)n1c(=O)oc2ccccc21
inactive: [1] > 100 µM | [2] > 100 µM | [3] 18.5 µM | [4] > 100 µM | [5] > 100 µM | [6] 41.8 µM | [7] 42.2 µM | [9] > 100 µM | [10] > 100 µM | [20] > 100 µM | [11] > 100 µM | [12] > 100 µM | [13] 93.8 µM | [14] > 100 µM | [15] > 100 µM | [16] > 100 µM | [17] > 100 µM | [18] > 100 µM

COc1cc(OC)cc(Oc2nc3cc(F)c(F)cc3nc2-c2ccccc2)c1
inactive: [1] > 100 µM | [2] > 100 µM | [3] > 100 µM | [4] > 100 µM | [5] > 100 µM | [6] > 100 µM | [8] > 100 µM | [9] > 100 µM | [10] > 100 µM | [20] > 100 µM | [11] > 100 µM | [12] > 100 µM | [13] > 100 µM | [14] > 100 µM | [15] > 100 µM | [16] > 100 µM | [17] > 100 µM | [18] > 100 µM

CC12CCC(=O)N1c1cnccc1N2 (centres undefined)
inactive: [1] > 100 µM | [2] > 100 µM | [3] > 100 µM | [4] > 100 µM | [5] > 100 µM | [6] > 100 µM | [7] > 100 µM | [8] > 100 µM | [9] > 100 µM | [20] > 100 µM | [11] > 100 µM | [12] > 100 µM | [19] > 100 µM | [13] > 100 µM | [14] > 100 µM | [15] > 100 µM | [16] > 100 µM | [17] > 100 µM | [18] > 100 µM

CN1C(=O)C(C#N)C2C[C@@]1(C)Oc1ccccc12 (some centres undefined)
inactive: [1] > 100 µM | [2] > 100 µM | [3] > 100 µM | [4] > 100 µM | [5] > 100 µM | [6] > 100 µM | [7] > 100 µM | [8] > 100 µM | [10] > 100 µM | [20] > 100 µM | [11] > 100 µM | [12] > 100 µM | [19] > 100 µM | [13] > 100 µM | [14] > 100 µM | [16] > 100 µM | [17] > 100 µM | [18] > 100 µM

CC(=O)c1ccc2c(c1)oc(=O)n2CCN1CCCCC1
inactive: [2] > 100 µM | [3] 26.3 µM | [4] > 100 µM | [5] > 100 µM | [6] > 100 µM | [7] > 100 µM | [8] > 100 µM | [9] 2.79 µM | [10] > 100 µM | [11] > 100 µM | [12] > 100 µM | [19] > 100 µM | [13] > 100 µM | [14] > 100 µM | [15] > 100 µM | [17] > 100 µM | [18] > 100 µM

CCCCC(CC)C(=O)Oc1ccc(C(=O)c2ccccc2)c(O)c1 (centres undefined)
inactive: [1] 46.8 µM | [2] 43.5 µM | [3] 43.6 µM | [4] 61.2 µM | [5] 35.6 µM | [6] 55.1 µM | [7] 25.9 µM | [8] 38.5 µM | [9] 40.6 µM | [20] 31.7 µM | [11] 40.5 µM | [12] 44.9 µM | [19] 15.1 µM | [13] 29.4 µM | [14] > 100 µM | [15] 44.4 µM | [16] 23.3 µM | [17] 56.4 µM | [18] 38.5 µM
